In series [1] the test system is Boophilus microplus. The series is described as follows: Boophilus microplus test (BOOPMI injection). The conditions noted are these: 20 μg animal; injection into the abdomen; after 7 days, laying of fertile eggs. Type of series: in vivo. The method, then: Boophilus microplus Test (BOOPMI Injection) Solvent: dimethyl sulphoxide To prepare an appropriate active ingredient formulation, 10 mg of active ingredient are mixed with 0.5 ml of solvent and the concentrate is diluted with solvent to the desired concentration. The active ingredient solution is injected into the abdomen (Boophilus microplus), and the animals are transferred into dishes and stored in a climate-controlled room. The efficacy is assessed by laying of fertile eggs. After 7 days, the efficacy in % is determined. 100% means that none of the ticks has laid any fertile eggs.

Series [2] has as its system unfed adult fleas (Ctenocephalides felis). The series is described as follows: Ctenocephalides felis test (CTECFE). The conditions noted are these: 100 ppm in citrated cow's blood; after 2 days. Type of series: in vivo. The method, then:
Ctenocephalides felis Test ([…]) Solvent: 1 part by weight of dimethyl sulphoxide For the purpose of preparing an appropriate active ingredient formulation, 10 mg of active ingredient are mixed with 0.5 ml of dimethyl sulphoxide. A portion of the concentrate is diluted with citrated cow's blood and the desired concentration is established. About 20 unfed adult fleas (Ctenocephalides felis) are introduced into a chamber closed at the top and bottom with gauze. A metal cylinder, the bottom of which is closed with Parafilm, is placed onto the chamber. The cylinder contains the blood/active ingredient preparation, which can be imbibed by the fleas through the Parafilm membrane. After 2 days, the kill in % is determined. 100% means that all fleas have been killed; 0% means that none of the fleas have been killed.

Series [3] relates to adult Musca domestica. The series is described as follows: Musca domestica test. Type of series: in vivo. The note with it: 100 ppm; after 2 days. The method, then: Musca domestica Test Solvent: dimethyl sulphoxide To prepare an appropriate active ingredient formulation, 10 mg of active ingredient are mixed with 0.5 ml of dimethyl sulphoxide and the concentrate is diluted with water to the desired concentration. Vessels containing a sponge treated with the active ingredient preparation of the desired concentration are populated with adult Musca domestica. After 2 days, the kill in % is determined. 100% means that all of the flies have been killed; 0% means that none of the flies have been killed.

Series [4] deals with larvae of the mustard beetle (Phaedon cochleariae). The series is described as follows: Phaedon test (PHAECO spray treatment). Type of series: in vivo. The conditions noted are these: Chinese cabbage discs, after 7 days; for efficacy: 500 g/ha; for pest or weed control at 500 g/ha: Phaedon cochleariae, 168 h, read-out: efficacy. As for the experimental part: Phaedon Test ([…] Spray Treatment) Solvent: 78.0 parts by weight of acetone • • 1.5 parts by weight of dimethylformamide Emulsifier: 0.5 part by weight of alkylaryl polyglycol ether To prepare an appropriate active ingredient preparation, 1 part by weight of active ingredient is mixed with the stated amounts of solvent and emulsifier, and the concentrate is diluted with emulsifier-containing water to the desired concentration. Discs of Chinese cabbage (Brassica pekinensis) are sprayed with an active ingredient preparation of the desired concentration and, after drying, populated with larvae of the mustard beetle (Phaedon cochleariae). After 7 days, the efficacy in % is determined. 100% means that all beetle larvae have been killed; 0% means that none of the beetle larvae have been killed.

Series [5] deals with caterpillars of the armyworm (Spodoptera frugiperda). The series is described as follows: Spodoptera frugiperda test (SPODFR spray treatment). Type of series: in vivo. The conditions noted are these: maize leaf discs, after 7 days; for efficacy: 500 g/ha; for pest or weed control at 500 g/ha: Spodoptera frugiperda, foliar, 168 h, read-out: efficacy. The method, then: Spodoptera frugiperda Test (SPODFR Spray Treatment) Solvent: 78.0 parts by weight of acetone • • 1.5 parts by weight of dimethylformamide Emulsifier: 0.5 part by weight of alkylaryl polyglycol ether To prepare an appropriate active ingredient preparation, 1 part by weight of active ingredient is mixed with the stated amounts of solvent and emulsifier, and the concentrate is diluted with emulsifier-containing water to the desired concentration. Discs of maize leaves (Zea mays) are sprayed with an active ingredient preparation of the desired concentration and, after drying, populated with caterpillars of the armyworm (Spodoptera frugiperda). After 7 days, the efficacy in % is determined. 100% means that all caterpillars have been killed; 0% means that none of the caterpillars have been killed.

The test system of series [6] is green peach aphid (Myzus persicae). The series is described as follows: Myzus test (MYZUPE spray treatment). Type of series: in vivo. The note with it: Chinese cabbage discs, after 6 days; for efficacy: 500 g/ha; for pest or weed control at 500 g/ha: Myzus persicae, 144 h, read-out: efficacy. The method, then: Myzus Test (MYZUPE Spray Treatment) Solvent: 78 parts by weight of acetone • • 1.5 parts by weight of dimethylformamide Emulsifier: 0.5 part by weight of alkylaryl polyglycol ether To prepare an appropriate active ingredient preparation, 1 part by weight of active ingredient is mixed with the stated amounts of solvent and emulsifier, and the concentrate is diluted with emulsifier-containing water to the desired concentration. Discs of Chinese cabbage (Brassica pekinensis) infested by all stages of the green peach aphid (Myzus persicae) are sprayed with an active ingredient preparation of the desired concentration. After 6 days, the efficacy in % is determined. 100% means that all of the aphids have been destroyed; 0% means that none of the aphids have been destroyed.

In series [7] the test system is red spider mite (Tetranychus urticae). The series is described as follows: Tetranychus test, OP-resistant (TETRUR spray treatment). The conditions noted are these: 500 g/ha, bean leaf discs, after 6 days; for pest or weed control at 500 g/ha: Tetranychus urticae, foliar, 144 h, read-out: efficacy. Type of series: in vivo. The method, then:
Tetranychus Test, OP-Resistant (TETRUR Spray Treatment)
Solvent: 78.0 parts by weight of acetone • • 1.5 parts by weight of dimethylformamide
Emulsifier: 0.5 part by weight of alkylaryl polyglycol ether
To prepare an appropriate active ingredient preparation, 1 part by weight of active ingredient is mixed with the stated amounts of solvent and emulsifier, and the concentrate is diluted with emulsifier-containing water to the desired concentration. Discs of bean leaves (Phaseolus vulgaris) infested by all stages of the red spider mite (Tetranychus urticae) are sprayed with an active ingredient preparation of the desired concentration. After 6 days, the efficacy in % is determined. 100% means that all spider mites have been killed; 0% means that none of the spider mites have been killed.

A short description of series [8]: logP by HPLC on reversed-phase columns (C 18), EEC Directive 79/831 Annex V.A8. Type of series: physicochemical. The conditions noted are these: reversed-phase C18 HPLC column, pH 2.7, * LC-MS, acidic range pH 2.7, 0.1% aqueous formic acid and acetonitrile; read-out: log P. The text has this: [table] The calibration is effected with unbranched alkan-2-ones (having 3 to 16 carbon atoms) with known logP values (logP values determined on the basis of the retention times by linear interpolation between two successive alkanones).

`COc1nccnc1-n1nc(C(F)(F)F)c(-c2cc(Cl)cc(Cl)c2)c1N` [Ex. 6]: the efficacy is recorded as 100% in series [1], 100% in series [4] and 83% in series [5]. Moreover, the “efficacy (kill)” value was 90% in series [2] and 80% in series [3].
As to `C=Cc1nn(-c2nccnc2OC)c(N)c1-c1cc(Cl)cc(C(F)(F)F)c1` [Ex. 9], the efficacy in series [1], in series [6], in series [4], in series [5] and in series [7] was 100% each time.
In turn, `COc1nccnc1-n1nc(C(F)(F)F)c(-c2cc(Cl)cc(C(F)(F)F)c2)c1N` [Ex. 10] showed an efficacy in series [1] of 100%. Moreover, the “efficacy (kill)” value is on record as 90% in series [2] and 100% in series [3].
Consider `CCOc1nccnc1-n1nc(C(F)(F)F)c(-c2cc(Cl)cc(C(F)(F)F)c2)c1N` [Ex. 12], for which the efficacy is 100% in series [1], 100% in series [4] and 90% in series [7]. In addition, the entries for the “efficacy (kill)” value in series [2] and in series [3] were 90% and 100%, respectively.
As for `COc1nccnc1-n1nc(C(F)(F)C(F)(F)F)c(-c2cc(F)cc(C(F)(F)F)c2)c1N` [Ex. 21], the efficacy in series [1], in series [6], in series [4], in series [5] and in series [7] was 100% throughout. In addition, the “efficacy (kill)” value in series [3] is listed as 100%.
As to `COc1ccc(CNc2c(-c3cc(Cl)cc(C(F)(F)F)c3)c(C(F)(F)F)nn2-c2nccnc2OC)cc1` [Ex. 41], the “efficacy (kill)” value in series [2] was 80%. Moreover, the efficacy in series [6] is 90%; in series [4], 100%.
Consider `COc1nccnc1-n1nc(C(F)(F)C(F)(F)C(F)(F)F)c(-c2cc(Cl)cc(C(F)(F)F)c2)c1N` [Ex. 46], for which the efficacy is reported as 100% in series [1]; 80% in series [6]; 100% in series [4]; 100% in series [5]; 80% in series [7]. Further, the “efficacy (kill)” value in series [2] amounted to 80%.
As to `COc1cc(-c2c(C(F)(F)F)nn(-c3nccnc3OC)c2N)cc(C(F)(F)F)c1OC` [Ex. 89], the efficacy in series [1], in series [4] and in series [5] was 100% throughout. The results for the “efficacy (kill)” value in series [2] and in series [3] were 100% and 80%, respectively.
In the case of `COc1nccnc1-n1nc(C(F)(F)F)c(-c2cc(Br)c3c(c2)OCCCO3)c1N` [Ex. 131], the efficacy in series [1], in series [4], in series [5] and in series [7] was 100% throughout. The “efficacy (kill)” value in series [2] and in series [3] was 100% throughout.
On to `COc1nccnc1-n1nc(C(F)(F)F)c(-c2cc(Cl)c3c(c2)COCO3)c1N` [Ex. 135], for which the efficacy in series [1] is recorded as 100%; in series [4], 100%; in series [5], 80%. Besides, in series [2], the “efficacy (kill)” value is recorded as 100%.
With `COc1nccnc1-n1nc(C(F)(F)F)c(-c2cc(Cl)c3c(c2)OCCCO3)c1N` [Ex. 136], the efficacy in series [1] and in series [4] was 100% each time. Besides, in series [2], the “efficacy (kill)” value worked out at 100%.
For `COc1nccnc1-n1nc(C(F)(F)F)c(-c2cc(C#N)c3c(c2)OCO3)c1N` [Ex. 150], the chromatographic logP in series [8] was 2.66. The pest or weed control at 500 g/ha in series [6], in series [4], in series [5] and in series [7] was 100% each time.
In the case of `COc1nccnc1-n1nc(C(F)(F)Cl)c(-c2cc(Cl)c3c(c2)OCO3)c1N` [Ex. 169], the chromatographic logP in series [8] is 3.26. The pest or weed control at 500 g/ha in series [6], in series [4], in series [5] and in series [7] was 100% throughout.
In the case of `CCOc1nccnc1-n1nc(CC)c(-c2cc(Cl)c3c(c2)OCO3)c1N` [Ex. 170], the chromatographic logP in series [8] amounted to 2.96. In addition, the pest or weed control at 500 g/ha in series [6], in series [4], in series [5] and in series [7] was 100% throughout.
In the case of `CCOc1nccnc1-n1nc(C(F)(F)F)c(-c2cc(Cl)c3c(c2)OCO3)c1N` [Ex. 171], in series [8], the chromatographic logP amounted to 3.48. Further, the pest or weed control at 500 g/ha in series [6], in series [4], in series [5] and in series [7] was 100% each time.
In the case of `CCOc1nccnc1-n1nc(C(F)(F)F)c(-c2cc(C#N)c3c(c2)OCO3)c1N` [Ex. 172], in series [8], the chromatographic logP is 3.01. In addition, the pest or weed control at 500 g/ha in series [6], in series [4], in series [5] and in series [7] was 100% throughout.
For `COc1nccnc1-n1nc(C(F)(F)F)c(-c2cc(F)c3c(c2)OCO3)c1N` [Ex. 174], in series [8], the chromatographic logP worked out at 2.91. For the same molecule, the pest or weed control at 500 g/ha in series [6], in series [4], in series [5] and in series [7] was 100% throughout.
For the molecule `CCOc1nccnc1-n1nc(C(F)(F)F)c(-c2cc(F)c3c(c2)OCO3)c1N` [Ex. 175], in series [8], the chromatographic logP was determined as 3.27. Besides, the pest or weed control at 500 g/ha in series [6], in series [4], in series [5] and in series [7] was 100% throughout.

Values taken from patent US8513260B2, “Pyrazinylpyrazoles” (Bayer CropScience AG, priority 2009, dated 2013).
